Measured values: ChEMBL document CHEMBL3885861, “Open TG-GATES”

Species: Rattus norvegicus
Assay: Open TG-GATES - Regimen: Daily Repeat
Assay type: toxicity, organism-based, Sprague-Dawley
Design: regimen Daily Repeat, gender Male, age 6 weeks
Settings: in vivo, iv, route intravenous injection; for gamma-GTP / ALP / ALT / AST / BUN / CRE / DBIL / GLC / IP / K / LDH / PL / RALB / TBIL / TC / TP / TG: tissue Plasma; for APTT / Bas / Eos / Fbg / Hb / Ht / Lym / MCH / MCHC / Mono / Neu / PT / Plat / RBC / Ret / WBC / MCV: tissue Blood; for KIDNEY_L / KIDNEY_R / KIDNEY_TOTAL: tissue Kidney; for LIVER: tissue Liver
[1] = 30 mg/kg, 72 h, dose level Middle, time 3 day
[2] = 30 mg/kg, […], dose level Middle, time 7 day
[3] = 30 mg/kg, […], dose level Middle, time 14 day
[4] = 30 mg/kg, […], dose level Middle, time 28 day
[5] = 100 mg/kg, 72 h, dose level High, time 3 day
[6] = 100 mg/kg, […], dose level High, time 7 day
[7] = 100 mg/kg, […], dose level High, time 14 day
[8] = 100 mg/kg, […], dose level High, time 28 day

## GENTAMICIN
10 mg/kg, […], dose level Low, time 28 day
  gamma-GTP: 2 IU/L
[1]
  TERMINAL_BW: 231.1 g
  APTT: 22 s
  Bas: 0%
  Eos: 1%
  Fbg: 292.8 mg/dL
  Hb: 12.8 g/dL
  Ht: 37.4%
  Lym: 75.4%
  MCH: 21 pg
  MCHC: 34.2%
  Mono: 3.2%
  Neu: 19.8%
  PT: 16.5 s
  Plat: 116.2 x10_4/uL
  RBC: 608.6 x10_4/ul
  Ret: 5.4%
  WBC: 99.7 x10_2/uL
  KIDNEY_L: 1 g
  KIDNEY_R: 1 g
  KIDNEY_TOTAL: 2 g
  ALP: 1568.4 IU/L
  ALT: 38.4 IU/L
  AST: 70.6 IU/L
  BUN: 19 mg/dL
  CRE: 0.2 mg/dL
  DBIL: 0 mg/dL
  GLC: 170.6 mg/dL
  IP: 6.8 mg/dL
  K: 4.7 meq/L
  LDH: 175 IU/L
  PL: 147.8 mg/dL
  RALB: 3 g/dL
  TBIL: 0.008 mg/dL
  TC: 69.2 mg/dL
  TP: 5.4 g/dL
  gamma-GTP: 1.8 IU/L
[2]
  TERMINAL_BW: 256.1 g
  APTT: 24.3 s
  Bas: 0%
  Eos: 1.2%
  Fbg: 303.4 mg/dL
  Ht: 39%
  Lym: 75%
  MCH: 21 pg
  MCHC: 34.7%
  MCV: 60.6 fL
  Mono: 4%
  PT: 15.9 s
  Plat: 111.1 x10_4/uL
  RBC: 644.4 x10_4/ul
  Ret: 4.1%
  WBC: 106.4 x10_2/uL
  KIDNEY_L: 1.1 g
  KIDNEY_R: 1.1 g
  KIDNEY_TOTAL: 2.1 g
  LIVER: 10.8 g
  ALP: 1481.6 IU/L
  ALT: 40.6 IU/L
  BUN: 17 mg/dL
  CRE: 0.2 mg/dL
  DBIL: 0 mg/dL
  GLC: 174.8 mg/dL
  IP: 6.1 mg/dL
  K: 4.5 meq/L
  LDH: 152.6 IU/L
  PL: 146.8 mg/dL
  RALB: 3 g/dL
  TBIL: 0.006 mg/dL
  TC: 72 mg/dL
  TG: 131.4 mg/dL
  TP: 5.6 g/dL
  gamma-GTP: 1.6 IU/L
[3]
  TERMINAL_BW: 289.4 g
  APTT: 22.8 s
  Bas: 0%
  Eos: 0.8%
  Fbg: 296.4 mg/dL
  Ht: 40.3%
  Lym: 81.4%
  MCHC: 35.7%
  MCV: 58.2 fL
  Mono: 2.2%
  Plat: 106 x10_4/uL
  RBC: 693.6 x10_4/ul
  Ret: 3.2%
  WBC: 131.7 x10_2/uL
  KIDNEY_L: 1.2 g
  KIDNEY_R: 1.2 g
  KIDNEY_TOTAL: 2.4 g
  LIVER: 10.8 g
  ALP: 1265.2 IU/L
  ALT: 36.8 IU/L
  AST: 67.6 IU/L
  CRE: 0.2 mg/dL
  DBIL: 0 mg/dL
  GLC: 176.4 mg/dL
  IP: 5.9 mg/dL
  K: 4.3 meq/L
  LDH: 144.8 IU/L
  PL: 140.2 mg/dL
  RALB: 3 g/dL
  TBIL: 0.008 mg/dL
  TC: 68.6 mg/dL
  TG: 114 mg/dL
  TP: 5.7 g/dL
  gamma-GTP: 1.8 IU/L
[4]
  TERMINAL_BW: 356.8 g
  APTT: 23.3 s
  Bas: 0%
  Eos: 0.8%
  Fbg: 308 mg/dL
  Hb: 15.3 g/dL
  Ht: 42.9%
  Lym: 80.4%
  MCH: 19.2 pg
  MCHC: 35.7%
  MCV: 53.7 fL
  Mono: 2.4%
  Plat: 107.2 x10_4/uL
  RBC: 799 x10_4/ul
  Ret: 1.8%
  WBC: 106 x10_2/uL
  KIDNEY_L: 1.5 g
  KIDNEY_R: 1.6 g
  KIDNEY_TOTAL: 3.1 g
  LIVER: 12.3 g
  ALP: 959 IU/L
  ALT: 31 IU/L
  CRE: 0.3 mg/dL
  DBIL: 0.002 mg/dL
  GLC: 176.4 mg/dL
  IP: 5.6 mg/dL
  K: 4.2 meq/L
  LDH: 109.8 IU/L
  PL: 130 mg/dL
  RALB: 3 g/dL
  TBIL: 0.01 mg/dL
  TC: 68.4 mg/dL
  TG: 103 mg/dL
  TP: 5.8 g/dL
  gamma-GTP: 2.2 IU/L
[5]
  TERMINAL_BW: 229.2 g
  APTT: 22 s
  Bas: 0%
  Eos: 1%
  Fbg: 294.4 mg/dL
  Ht: 38.2%
  Lym: 80.8%
  MCH: 21 pg
  MCHC: 34.3%
  MCV: 61.1 fL
  Mono: 3.8%
  Neu: 13%
  PT: 16.5 s
  Plat: 115 x10_4/uL
  RBC: 625.8 x10_4/ul
  Ret: 4.8%
  WBC: 83.9 x10_2/uL
  KIDNEY_L: 1 g
  KIDNEY_R: 1 g
  KIDNEY_TOTAL: 2 g
  LIVER: 10 g
  ALP: 1437 IU/L
  AST: 67.4 IU/L
  CRE: 0.2 mg/dL
  DBIL: 0 mg/dL
  GLC: 170 mg/dL
  IP: 6.8 mg/dL
  K: 4.7 meq/L
  LDH: 137.2 IU/L
  PL: 131.4 mg/dL
  RALB: 3 g/dL
  TBIL: 0.014 mg/dL
  TC: 64.8 mg/dL
  TG: 100 mg/dL
  TP: 5.5 g/dL
  gamma-GTP: 1.4 IU/L
[6]
  TERMINAL_BW: 262.4 g
  APTT: 24.3 s
  Bas: 0%
  Eos: 1.2%
  Fbg: 314.2 mg/dL
  Lym: 77.6%
  MCHC: 34.5%
  MCV: 60.6 fL
  Mono: 4.2%
  Plat: 106.7 x10_4/uL
  RBC: 646.4 x10_4/ul
  Ret: 4.3%
  WBC: 117.3 x10_2/uL
  KIDNEY_L: 1.2 g
  KIDNEY_R: 1.2 g
  KIDNEY_TOTAL: 2.5 g
  LIVER: 10.9 g
  ALP: 1249 IU/L
  ALT: 39.8 IU/L
  AST: 73 IU/L
  CRE: 0.2 mg/dL
  DBIL: 0 mg/dL
  GLC: 182.6 mg/dL
  IP: 6 mg/dL
  K: 4.6 meq/L
  LDH: 158.8 IU/L
  PL: 139.8 mg/dL
  RALB: 3 g/dL
  TBIL: 0.004 mg/dL
  TC: 71 mg/dL
  TG: 91.4 mg/dL
  TP: 5.6 g/dL
  gamma-GTP: 2 IU/L
[7]
  TERMINAL_BW: 275.2 g
  APTT: 23.3 s
  Bas: 0%
  Eos: 1%
  Fbg: 320.8 mg/dL
  Lym: 83%
  MCH: 21.1 pg
  MCHC: 36.2%
  MCV: 58.1 fL
  Mono: 3%
  PT: 16.4 s
  Plat: 114.3 x10_4/uL
  RBC: 701.8 x10_4/ul
  Ret: 1.8%
  WBC: 106.6 x10_2/uL
  KIDNEY_L: 1.5 g
  KIDNEY_R: 1.5 g
  KIDNEY_TOTAL: 3 g
  LIVER: 10.2 g
  ALP: 1114.5 IU/L
  ALT: 33.5 IU/L
  AST: 71.8 IU/L
  BUN: 20 mg/dL
  CRE: 0.3 mg/dL
  DBIL: 0 mg/dL
  IP: 6 mg/dL
  K: 4.2 meq/L
  PL: 148.8 mg/dL
  RALB: 3.1 g/dL
  TBIL: 0.015 mg/dL
  TC: 81.8 mg/dL
  TG: 98.2 mg/dL
  TP: 5.7 g/dL
  gamma-GTP: 2.5 IU/L
[8]
  TERMINAL_BW: 315.6 g
  APTT: 23.9 s
  Bas: 0%
  Eos: 1.2%
  Fbg: 282.2 mg/dL
  Hb: 14.7 g/dL
  Ht: 40.7%
  Lym: 83.5%
  MCH: 19 pg
  MCHC: 36.1%
  MCV: 52.6 fL
  Mono: 2.2%
  Neu: 11.5%
  PT: 16.5 s
  Plat: 118.3 x10_4/uL
  RBC: 773 x10_4/ul
  Ret: 1.3%
  WBC: 112.9 x10_2/uL
  KIDNEY_L: 1.6 g
  KIDNEY_R: 1.7 g
  KIDNEY_TOTAL: 3.3 g
  ALP: 662.5 IU/L
  AST: 67 IU/L
  BUN: 18 mg/dL
  CRE: 0.3 mg/dL
  DBIL: 0 mg/dL
  IP: 5.8 mg/dL
  K: 3.6 meq/L
  LDH: 109.2 IU/L
  PL: 112 mg/dL
  RALB: 3.1 g/dL
  TBIL: 0.03 mg/dL
  TC: 67 mg/dL
  TG: 40 mg/dL
  TP: 5.9 g/dL
  gamma-GTP: 2.5 IU/L
